This assay has as its target T1, Human DGAT1 (Homo sapiens, UniProt O75907).
T1 construct: made in house; host or cells: Pichia pastoris (printed 'Pichia pastris'), vector pPICZA, membrane fraction
T1 sequence (O75907 1-488): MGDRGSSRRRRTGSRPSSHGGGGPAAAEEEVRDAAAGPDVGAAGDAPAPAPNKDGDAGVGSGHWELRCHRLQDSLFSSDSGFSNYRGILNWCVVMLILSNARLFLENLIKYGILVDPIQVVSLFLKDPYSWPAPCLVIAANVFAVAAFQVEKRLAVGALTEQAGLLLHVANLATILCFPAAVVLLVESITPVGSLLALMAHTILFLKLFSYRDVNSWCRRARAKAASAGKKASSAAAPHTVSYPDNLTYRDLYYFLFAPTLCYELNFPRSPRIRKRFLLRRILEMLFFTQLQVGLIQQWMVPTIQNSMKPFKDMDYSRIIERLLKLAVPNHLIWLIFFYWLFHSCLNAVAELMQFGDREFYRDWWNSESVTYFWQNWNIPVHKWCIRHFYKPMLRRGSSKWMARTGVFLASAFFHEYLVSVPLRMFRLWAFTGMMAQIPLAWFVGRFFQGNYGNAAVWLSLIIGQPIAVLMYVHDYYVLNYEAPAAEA
In words: DGAT1 Inhibitory Activity Test. The assay is classed as biochemical. The note with it: DGAT1-expressed yeast membrane fraction as enzyme source; 40 μM Dioelin, 15 μM [14C]-oleoyl-CoA; room temperature for 30 minutes. On the procedure:
Human DGAT1 genes were amplified by PCR using primers described below from human cDNA library (Clontech).
The amplified human DGAT1 genes were introduced into a yeast expression vector pPICZA (Invitrogen). The resultant expression plasmid was introduced into an yeast (Pichia pastris) by electroporation to produce a recombinant yeast. The recombinant yeast was cultured in the presence of 0.5% methanol for 72 hours, and the cells were crushed using glass beads in 10 mM Tris pH 7.5, 250 mM sucrose and 1 mM EDTA, followed by adjusting the membrane fraction by centrifugation to use the adjusted membrane fraction as an enzyme source.
To the reaction liquid having the following composition: 100 mM Tris pH 7.5, 100 mM MgCl2, 100 mM sucrose, 40 μM Dioelin, 15 μM [^14C]-oleoyl-CoA, 0.25 μg of test substance, DGAT1-expressed yeast membrane fraction, was added, and the mixture having a volume of 100 μl was incubated at room temperature for 30 minutes. To the reaction liquid, 100 μl of 2-propanol/heptan/H2O (80/20/2) was added, the mixture was stirred well, followed by adding 200 of heptane and further stirring the mixture. After centrifugation, the heptane layer was collected, ethanol/0.1N NaOH/H2O (50:5:45) was added, the mixture was thus stirred, followed by recentrifuging the mixture and collecting the heptane layer. After exsiccation of the resultant heptane layer, 100 μl of Microscint 0 (PerkinElmer) was added, and the radioactivity was measured with a liquid scintillation counter. The inhibitory activity was calculated from the following formula:
Inhibition rate=100−(radioactivity in case of addition of test compound−background)/(radioactivity in case of addition of no test compound−background)×100
wherein the background means the radioactivity in case of addition of no membrane fraction.
For the compound `CN1C(=O)[C@H](NC(=O)C(C)(C)NC(=O)c2ccc(F)cc2)CN(c2cc(Cl)cc(Cl)c2)c2cc(F)ccc21` [Example 59, N-(2-{[(3R)-5-(3,5-dichlorophenyl)-7-fluoro-1-methyl-2-oxo-2,3,4,5-tetrahydro-1H-1,5-benzodiazepin-3-yl]amino}-1,1-dimethyl-2-oxoethyl)-4-fluorobenzamide], 40.2 nM corresponded to half-maximal inhibition (IC50).
For the compound `CN1C(=O)[C@H](NC(=O)C(C)(C)NC(=O)C2(C(F)(F)F)CC2)CN(c2cc(C(F)(F)F)cc(C(F)(F)F)c2)c2ccc(F)cc21` [Example 27, N-{(3R)-5-[3,5-bis(trifluoromethyl)phenyl]-8-fluoro-1-methyl-2-oxo-2,3,4,5-tetrahydro-1H-1,5-benzodiazepin-3-yl}-2-methyl-N^2-{[1-(trifluoromethyl)cyclopropyl]carbonyl}alaninamide], inhibition was half-maximal at 16.3 nM (IC50).
As for “N-[2-({(3R)-5-[3,5-bis(trifluoromethyl)phenyl]-8-fluoro-1-methyl-2-oxo-2,3,4,5-tetrahydro-1H-1,5-benzodiazepin-3-yl}amino)-1,1-dimethyl-2-oxoethyl]-5-fluoropyridine-2-carboxyamide [Example 19]”, the figure is 24.1 nM; as for `CN1C(=O)[C@H](NC(=O)C(C)(C)NC(=O)N2CCCCC2)CN(c2ccc(OC(F)(F)F)cc2)c2ccc(F)cc21` [Example 52, N-[2-({(3R)-8-fluoro-1-methyl-2-oxo-5-[4-(trifluoromethoxy)phenyl]-2,3,4,5-tetrahydro-1H-1,5-benzodiazepin-3-yl}amino)-1,1-dimethyl-2-oxoethyl]piperidin-1-carboxyamide], 91.1 nM; as for `CN1C(=O)[C@H](NC(=O)C(C)(C)NC(=O)c2ccc(F)cc2)CN(c2ccc(OC(F)(F)F)cc2)c2ccc(F)cc21` [Example 1, 4-fluoro-N-[2-({(3R)-8-fluoro-1-methyl-2-oxo-5-[4-(trifluoromethoxy)phenyl]-2,3,4,5-tetrahydro-1H-1,5-benzodiazepin-3-yl}amino)-1,1-dimethyl-2-oxoethyl]benzamide], 166 nM.
The value for `CN1C(=O)[C@H](NC(=O)C(C)(C)NC(=O)NC(C)(C)C)CN(c2cc(Cl)cc(Cl)c2)c2ccc(F)cc21` [Example 47, N^2-[(tert-butylamino)carbonyl]-N-[(3R)-5-(3,5-dichlorophenyl)-8-fluoro-1-methyl-2-oxo-2,3,4,5-tetrahydro-1H-1,5-benzodiazepin-3-yl]-2-methylalanineamide] was 61.3 nM; that for `CN1C(=O)[C@H](NC(=O)C(C)(C)NC(=O)c2ncco2)CN(Cc2ccc(OC(F)(F)F)cc2)c2ccc(F)cc21` [Example 100, N-[2-({(3R)-8-fluoro-1-methyl-2-oxo-5-[4-(trifluoromethoxy)benzyl]-2,3,4,5-tetrahydro-1H-1,5-benzodiazepin-3-yl}amino)-1,1-dimethyl-2-oxoethyl]-1,3-oxazol-2-carboxyamide] was 2230 nM; that for `Cc1cnc(C(=O)NC(C)(C)C(=O)N[C@@H]2CN(Cc3ccc(OC(F)(F)F)cc3)c3ccc(F)cc3N(C)C2=O)cn1` [Example 98, N-[2-({(3R)-8-fluoro-1-methyl-2-oxo-5-[4-(trifluoromethoxy)benzyl]-2,3,4,5-tetrahydro-1H-1,5-benzodiazepin-3-yl}amino)-1,1-dimethyl-2-oxoethyl]-5-methylpyrazin-2-carboxyamide] was 1340 nM.
In the case of `CN1C(=O)[C@H](NC(=O)C(C)(C)NC(=O)c2ccc(F)cc2)CN(Cc2ccc(F)c(C(F)(F)F)c2)c2ccc(F)cc21` [Example 84, 4-fluoro-N-[2-({(3R)-8-fluoro-5-[4-fluoro-3-(trifluoromethyl)benzyl]-1-methyl-2-oxo-2,3,4,5-tetrahydro-1H-1,5-benzodiazepin-3-yl}amino)-1,1-dimethyl-2-oxoethyl]benzamide], the IC50 (commonly the concentration at which inhibition is half-maximal) was 140 nM.
Take `CN1C(=O)[C@H](NC(=O)C2(NC(=O)c3ccccc3)CC2)CN(c2ccc(OC(F)(F)F)cc2)c2ccc(F)cc21` [Example 12, N-{1-[({(3R)-8-fluoro-1-methyl-2-oxo-5-[4-(trifluoromethoxy)phenyl]-2,3,4,5-tetrahydro-1H-1,5-benzodiazepin-3-yl}amino)carbonyl]cyclopropyl}benzamide]: inhibition was half-maximal at 192 nM (IC50).
The value for “N-(2-{[(3R)-5-(3,5-dichlorophenyl)-8-fluoro-1-methyl-2-oxo-2,3,4,5-tetrahydro-1H-1,5-benzodiazepin-3-yl]amino}-1,1-dimethyl-2-oxoethyl)-1,3-thiazol-2-carboxyamide [Example 45]” was 29.2 nM; that for `CN1C(=O)[C@H](NC(=O)C2(NC(=O)OC(C)(C)C)CC2)CN(Cc2ccc(OC(F)(F)F)cc2)c2ccccc21` [Example 92, tert-butyl {1-[({(3R)-1-methyl-2-oxo-5-[4-(trifluoromethoxy)benzyl]-2,3,4,5-tetrahydro-1H-1,5-benzodiazepin-3-yl}amino)carbonyl]cyclopropyl}carbamate] was 20.8 nM; that for `CN1C(=O)[C@H](NC(=O)C2(NC(=O)c3ccccc3)CC2)CN(Cc2cc(C(F)(F)F)cc(C(F)(F)F)c2)c2ccccc21` [Example 64, N-{1-[({(3R)-5-[3,5-bis(trifluoromethyl)benzyl]-1-methyl-2-oxo-2,3,4,5-tetrahydro-1H-1,5-benzodiazepin-3-yl}amino)carbonyl]cyclopropyl}benzamide] was 47.3 nM.

These data come from patent US20110319396A1, “BENZODIAZEPIN-2-ON DERIVATIVES” (MSD K.K., priority 2009, published 2011).
